From US5441983A, “Treatment of infection by enveloped virus with calix(N)arene compounds” (Genelabs Incorporated, priority 1992, dated 1995)
In brackets after ≈: the same amount, converted by molar mass.

What was measured:
HSV-2 [1] = test: Topical treatment of genital HSV-2 infection, guinea pigs, first study
[2] = test system: HSV glycoproteins gD, gB, and gC; test: Identification of KY-1 binding proteins; design: species or system HSV-1; conditions: FIG. 32B
From the text: In a fourth study, the binding of radiolabeled KY-1 compound to HSV-1 and HSV-2 viral proteins was examined. After compound binding, virus proteins were fractionated by sodium dodecyl sulfate polyacrylamide gel electrophoresis (SDS-PAGE), and the gel patterns developed by autoradiography. In FIG. 32A, lanes A and B in the figure are autoradiographs of HSV-1 proteins in the presence ([…]) and absence (lane B) of mercaptoethanol, and lanes C and D, analogous patterns for HSV-2 proteins. The lane at the right contains the molecular weight markers, as indicated. The major bands of drug binding in HSV-1 have molecular weights, as determined from SDS-PAGE, of 45, 66, and about 130 kilodaltons.
HSV-1 and HSV-2 virus suspensions were solubilized with SDS and fractionated on SDS-PAGE as above. Each sample was run in triplicate, corresponding to groups D, B, and C in FIG. 32B. The two gels in each group were analyzed by Western blotting as follows: The gels in groups D, B, and C were first reacted with mouse monoclonal antibody specific against HSV glycoprotein gD, gB, and dC, respectively. The antibodies were obtained from Dr. S. Chatterjee from the University of Alabama. The gels were then incubated with alkaline phosphatase-labeled goat antimouse antibody, to label the glycoprotein in each group. […]

adenovirus = test: Inhibition of adenovirus cytopathic effect in Vero cells; type: cell-based, adenoviruses 5 and 7; conditions: 1-100 μg, 24 h
Procedure: (§1) The ability of KY compounds to inhibit cell infection by a rhinovirus and adenoviruses 5 and 7 which are non-enveloped viruses, was similarly studied. Vero cells (10^5) were infected with a rhinovirus in the presence of KY-1, at concentrations ranging between 1-100 μg. Twenty-four hours after virus infection, the cells were examined for cytopathic effect, evidencing viral infection.
Vero cells were infected with adenovirus in the presence of KY-1, also at concentrations ranging between 1-100 μg, and twenty-four hours after virus infection, the cells were examined for cytopathic effect.

HSV-1 KOS = test: Inhibition of viral yield, wild type HSV-1 KOS; conditions: Human alphaherpesvirus 1, HeLa, read-out: ID90
Procedure: (§14) These compounds tested were the nucleoside analogs acyclovir (ACV), ganciclovir (DHPG), phosphonoformate (PFA), and phosphomethoxyethyladenine (PMEA). Inhibition of viral yield was determined, as above, by infecting Hela cells in the presence of wild type or drug-resistant strains of HSV-1 or HSV-2, and serial dilutions of a selected anti-viral compound, and infecting Vero cells with serial dilutions of the Hela cell lysate, as above.
(§15) The KOS (HSV-1) and 333 (HSV-2) are wild type viruses; the KOS(PMEA)' and KOS(PFA)' are drug-resistant HSV-1 strains having a DNA polymerase mutation. The 333(DHPG) strain is a drug-resistantHSV-2 strain having a thymidine kinase mutation.
(§16) The following strains of HSV-1 and HSV-2 virus were used: KOS, a wild type HSV-1 virus; KOS (PMEA) and KOS (PFA), both drug-resistant HSV-1 viruses having a DNA polymerase mutation; 333, a wild type HSV-2 HSV-2 virus, and 333 (DHPG), a drug-resistant HSV-2 virus having a thymidine kinase mutation.
(§17) After growth at 37° C. for 24 hours in 2 ml of RPMI-1640 containing 2% FCS and penicillin and streptomycin (P/S), the cells were frozen at -70° C. until the time for titration. The cells were freeze/thawed 3 times to release virus from the cells, serially diluted 10 fold, and the serial dilutions were added to Vero cells in culture. After 2 hours incubation at 37° C. the virus was removed and 0.5 ml methycellulose (4K cps) in RPMI-1640 and 2% FCS+P/S was added. Two days later, the medium was removed. The cells were stained in 0.8% crystal violet in 50% ethanol. The plaques formed were counted and the titer was calculated from the fold of dilutions. From the drug dose response, the concentration of each drug required to effect a 90% inhibition of virus yield, the IC90 concentration was determined.

HSV-1 KOS (PFA)' = test: Inhibition of viral yield, drug-resistant HSV-1 KOS(PFA)'; conditions: Human alphaherpesvirus 1, HeLa, read-out: ID90
Procedure: as §14, §15, §16, §17

HSV-2 [3] = test: Plaque reduction assay, HSV-2, Vero cells; type: cell-based, HSV-2 (333); conditions: Human alphaherpesvirus 2, Vero
Procedure: (§2) used in Table 3 were further tested for activity against HSV infection in
(§3) a plaque reduction assay, as detailed in Example 6. Here Vero cells, after
(§4) overnight incubation, were exposed to serial dilutions of KY compound,
(§5) from 0.625-10 μg/ml, and HSV-1 or HSV-2 virus for two hours. After
(§6) washing to remove drug and extracellular virus, the cells were further
(§7) incubated for 2 days, then stained and counted for plaque formation.
(§8) Percent inhibition was determined by dividing plaques produced by total
(§9) number of plaques in infected, untreated controls. From the concentration
(§10) effect curve of plaque inhibition (expressed as percent of control), the
(§11) concentration of compound required to produce 50% plaque reduction,
(§12) IC50, was determined. The IC50 values for infection by HSV-1 and
(§13) HSV-2 infection is given in the right-hand columns in Table 3. With

HSV-1 [4] = test: Plaque reduction assay, HSV-1, Vero cells; type: cell-based, HSV-1 (Kos-1); conditions: Human alphaherpesvirus 1, Vero, plaque reduction, Vero cells
Procedure: as §2, §3, §4, §5, §6, §7, §8, §9, §10, §11, §12, §13

HSV-1 [5] = test: Inactivation of purified HSV-1 by compound, plaque number after serial dilution; conditions: for Plaque number, dilution 10^2 / Plaque number, dilution 10^3 / Plaque number, dilution 10^4 / Plaque number, dilution 10^5 / Plaque number, dilution 1 / Plaque number, dilution 10^1: 10 μg/ml, duplicate
Procedure: In a third study, purified HSV-1 virus suspensions were incubated with KY-1 or the sodium salt thereof, or a control solution for 1 hour, then serially diluted to drug concentrations between 10^1 to 10^-4 μg/ml as described in Example 16. The "X" symbol in the table indicates plaques too numerous to count.
Purified HSV-1 was suspended in RPMI-1640 medium (Gibco Laboratories) containing 2% FCS, penicillin and streptomycin. […] The suspensions were incubated for 1 hour at 37° C., then diluted serially at 10 fold dilutions to final drug concentrations of 10, 10^0, 10^-1, 10^-2, 10^-3 and 10^-4 μg/ml drug concentrations The serially diluted particles were then added to Vero cells for two hours, as in Example 6, and the cells examined for plaques 48 hours later.

rhinovirus = test: Inhibition of rhinovirus cytopathic effect in Vero cells; type: cell-based; conditions: 1-100 μg, 24 h
Procedure: as §1

HSV-2 [6] = test: Topical treatment of genital HSV-2 infection, guinea pigs, second study; conditions: for % Animals with Lesions / Lesion Score (AUC) / Mean Peak lesion score: 24 h
Procedure: In another study using the guinea pig genital model described above, animals were infected with HSV-2, then treated with KY-1 or Y-1 topically at concentrations of 2% or 5% drug. […] Animals were treated and scored daily for severity of infection for 19 days.
The MS strain of HSV-2 was utilized for the experimental animal infection. Female Hartley strain guinea pigs (Charles River Breeding Laboratories, Kingston, NY) weighing 250-300 g were inoculated intravaginally with 2.0×10^5 plaque-forming units of HSV-2 one hour after being swabbed for removal of vaginal secretions.
Formulations of KY-1 or Y-1 were prepared by dissolving the compound in a 1.5% methyl cellulose solution such that final concentration of compound was 2% or 5% (wt/wt). Control animals were given either no treatment (N=10 animals) or treatment with placebo (1.5% methylcellulose solution).
To determine the effect of therapy on the development and spread of external genital lesions, lesion severity was scored on a 0-5+ scale through the primary infection period (19-21 days). Lesion score-day areas and virus titer-day areas under the curve, and peak lesion scores and peak virus titers between untreated and placebo-treated or placebo-treated and drug-treated animals were compared using the Mann-Whitney U range sum test. A p-value of 0.05 or less was considered significant.
Animals were scored daily for 19 days following inoculation for presence of lesions and severity of lesions (on a 0-5+ point scale). Lesion scores were tabulated as area under the curve of daily lesion score vs. time (days) and peak lesion score observed. A known antiviral agent, acyclovir (ACV) was administered in a 5% formulation to 8 animals as a positive control in the study.

HIV-HXB = test: Inhibition of syncytia formation, HIV-HXB (HTLV-IIIB); conditions: Human immunodeficiency virus 1, 18 h, read-out: HIV-HXB ED100, complete inhibition of syncytia formation
HSV-2 333 = test: Inhibition of viral yield, wild type HSV-2 333; conditions: Human alphaherpesvirus 2, HeLa, read-out: ID90
Procedure: as §14, §15, §16, §17

HSV-2 333 (DHPG)' = test: Inhibition of viral yield, drug-resistant HSV-2 333(DHPG)'; conditions: Human alphaherpesvirus 2, HeLa, read-out: ID90
Procedure: as §14, §15, §16, §17

RSV = test: Inhibition of RSV cytopathic effect in HEp2 cells; type: cell-based; conditions: human respiratory syncytial virus, HEp-2, read-out: ED50 RSV
HSV-1 KOS(PMEA)' = test: Inhibition of viral yield, drug-resistant HSV-1 KOS(PMEA)'; conditions: Human alphaherpesvirus 1, HeLa, read-out: ID90
Procedure: as §14, §15, §16, §17

O=S(=O)(O)c1cc2cc(S(=O)(=O)O)c3c(O)c2c(O)c1Cc1c(S(=O)(=O)O)cc2cc(S(=O)(=O)O)c(c(O)c2c1O)Cc1c(S(=O)(=O)O)cc2cc(S(=O)(=O)O)c(c(O)c2c1O)Cc1c(S(=O)(=O)O)cc2cc(S(=O)(=O)O)c(c(O)c2c1O)C3 [KY-1]
Lesion score Area Under Curve (HSV-2 [1]; 1%, +6 h): 30.8
Mean Peak lesion score (HSV-2 [1]; 1%, +6 h): 2.9
AUC, in words (HSV-2 [1]; 1%, +6h, P<0.01): significantly reduced the AUC
Lesion score Area Under Curve (HSV-2 [1]; 1%, +48 h): 46.6
Mean Peak lesion score (HSV-2 [1]; 1%, +48 h): 4.3
lesion development (AUC and mean peak lesion scores) versus placebo (HSV-2 [1]; 5%, 6h after infection, P <0.001): significantly reduced
Lesion score Area Under Curve (HSV-2 [1]; 5%, +6 h): 3.8
Mean Peak lesion score (HSV-2 [1]; 5%, +6 h): 0.8
Lesion score Area Under Curve (HSV-2 [1]; 5%, +48 h): 45.7
Mean Peak lesion score (HSV-2 [1]; 5%, +48 h): 3.7
proteins bound (major bands) [2]: correspond in molecular weight, to HSV glycoproteins gD, gB, and gC
reduction in cell clumping, adenovirus (adenovirus): No reduction in cell clumping
IC90 (HSV-1 KOS): 1.9 µg/mL (≈ 1.43 µM)
IC90 (HSV-1 KOS (PFA)'): 4.3 µg/mL (≈ 3.23 µM)
IC50 (HSV-2 [3]): 1.7 µg/mL (≈ 1.28 µM)
IC50 (HSV-1 [4]): 2.7 µg/mL (≈ 2.03 µM)
Plaque number, dilution 10^2 (HSV-1 [5]; 0.3 pfu/cell): 0,0
Plaque number, dilution 10^3 (HSV-1 [5]; 0.3 pfu/cell): 0,0
Plaque number, dilution 10^4 (HSV-1 [5]; 0.3 pfu/cell): 0,0
Plaque number, dilution 10^5 (HSV-1 [5]; 0.3 pfu/cell): 0,0
Plaque number, dilution 1 (HSV-1 [5]; 0.3 pfu/cell, listed as KY 1): 3,2
Plaque number, dilution 10^1 (HSV-1 [5]; 0.3 pfu/cell, listed as KY 1): 0,0
Plaque number, dilution 10^4 (HSV-1 [5]; 3 pfu/cell): 0,0
Plaque number, dilution 10^5 (HSV-1 [5]; 3 pfu/cell): 0,0
Plaque number, dilution 1 (HSV-1 [5]; 3 pfu/cell, listed as KY 1): 2,2
Plaque number, dilution 10^1 (HSV-1 [5]; 3 pfu/cell, listed as KY 1): 2,1
Plaque number, dilution 10^2 (HSV-1 [5]; 3 pfu/cell, listed as KY 1): 17,16
Plaque number, dilution 10^3 (HSV-1 [5]; 3 pfu/cell, listed as KY 1): 5,2
final drug concentration with complete virus inhibition (HSV-1 [5]; after dilution of treated virus): 10^-2 to 10^-4 μg/ml
reduction in cell clumping, rhinovirus (rhinovirus): No reduction in cell clumping
% Animals with Lesions (HSV-2 [6]; 2%): 70%
Lesion Score (AUC) (HSV-2 [6]; 2%): 16.2
Mean Peak lesion score (HSV-2 [6]; 2%): 2.2
% Animals with Lesions (HSV-2 [6]; 6%): 50%
Lesion Score (AUC) (HSV-2 [6]; 6%): 17.5
Mean Peak lesion score (HSV-2 [6]; 6%): 1.7
lesions, in words (HSV-2 [6]; 24 hours post-infection, 6% KY-1 or Y-1, 2% KY-1): reduced numbers of lesion bearing animals and reduced severity of lesions
EC100 (HIV-HXB): 8 µg/mL
IC90 (HSV-2 333): 3.2 µg/mL (≈ 2.41 µM)
IC90 (HSV-2 333 (DHPG)'): 3.7 µg/mL (≈ 2.78 µM)
EC50 (RSV): 0.19 µg/mL (≈ 0.143 µM)
IC90 (HSV-1 KOS(PMEA)'): 2.6 µg/mL (≈ 1.96 µM)
